This is an account of results in patent US20210252011A1, “TREATMENT OF GLIOBLASTOMA WITH FASN INHIBITORS” (FORMA Therapeutics, Inc., priority 2017, published 2021).

Data set [1] has as its target T1, FASN enzyme (Homo sapiens, UniProt P49327).
T1 construct: incubated with 10 μL of 40 nM FASN enzyme in assay buffer
The data set is described as follows: Enzymatic assay for FASN inhibitors. Format: biochemical. The following applies: 40 nM FASN enzyme, 25° C. As to the method:
Assays were performed in a 384-well black plate to measure the inhibition of FASN activity by individual compounds disclosed herein. An aliquot of 250 nL of compound was incubated with 10 μL of 40 nM FASN enzyme in assay buffer (50 mM HEPES (pH=7.3), 0.5 mM EDTA, 1 mM ascorbate, 100 mM sodium chloride and 0.04% TritonX-100) in each well at 25° C. for 60 minutes. After the plate was centrifuged briefly, 10 μL of substrate mix (20 μM acetyl-CoA, 60 μM malonyl-CoA, and 100 μM NADPH in assay buffer) was added to each well. The reaction was maintained at 25° C. for 90 minutes. The reaction was then quenched by adding 10 μL of 90 μM 7-diethylamino-3-(4′-maleimidylpheynyl)-4-methylcoumarin in 50/50 ethanol/water solution. The assay plate was incubated at 25° C. for 15 minutes and read on a plate reader with excitation and emission wavelengths at 360 nm and 530 nm, respectively. The IC50 of a given compound was calculated by fitting the dose response curve with a four-parameter logistic equation. Data shown below in Table B, where compounds having an activity designated as “A” provided an IC50<100 nm and compounds having an activity designated as “B” provided an IC50 of 100 nm-1.00 μM.

Data set [2] can be described thus: Determination of brain exposure in Balb/c nude mice following oral administration. Format: in vivo. Particulars: 5 mg/kg oral gavage; for Brain (μM) at 2 h / Plasma (μM) at 2 h / [Brain]/[Plasma] at 2 h: 2 h post dose; for Brain (μM) at 8 h / Plasma (μM) at 8 h / [Brain]/[Plasma] at 8 h: 8 h post dose; for Brain (μM) at 2, 8 h (single value) / Plasma (μM) at 2, 8 h (single value) / Kp: one value given, time point (2 or 8 h) not stated; for Kp: mouse, brain/plasma, read-out: [Brain]/[Plasma] at 2, 8 h (single value). As to the method:
Balb/c nude mice (body weight: 20-30 g; age range: approximately 6-8 weeks) were purchased from a qualified provider and acclimated for 5-7 days. The dosing formulation (dose: 5 mg/kg; concentration: 0.5 mg/mL; vehicle: PEG400:ethanol (v/v 9:1)) was prepared on the day of dosing and administered via oral gavage (dose volume: 10 mL/kg) to the mice (n=3 animals per time point). At the desired time point (2 or 8 h post dose) approximately 0.03 mL of blood sample was collected via venipuncture of peripheral veins into Heparin Na tubes and immediately placed on ice. After gently reverting the tube for approximately 10 seconds, the blood sample was centrifuged at 4,000×g for 5 minutes at 4° C. Supernatant was transferred into a micro-centrifuge tube and kept in a −80° C. freezer. Prior to brain collection, mice were fully exsanguinated via the following procedure: the chest cavity was opened, the ventricle was cut and a gentle iv saline flush (saline flush volume ˜20 mL) was performed with the animal placed head down at a 45 degree angle to facilitate blood removal. Brain samples were collected at the desired time point (2 or 8 h post dose), quick frozen in an ice box, and kept at −75±15° C. All brain samples were weighed and homogenated with buffer (brain weight (g) to PBS volume (mL) ratio of 1:4) before analysis. The actual concentration is the detected value multiplied by the dilution factor. For plasma sample analysis, plasma samples were quantified against a standard curve in plasma of Balb/c nude mice using an LC-MS/MS Method. For brain sample analysis, brain samples were quantified against a standard curve in brain homogenate of Balb/c nude mice using an LC-MS/MS Method. Each standard curve covered at least 6 calibration points including lower limit of quantification (LLOQ).

T1 sequence (P49327 whole entry): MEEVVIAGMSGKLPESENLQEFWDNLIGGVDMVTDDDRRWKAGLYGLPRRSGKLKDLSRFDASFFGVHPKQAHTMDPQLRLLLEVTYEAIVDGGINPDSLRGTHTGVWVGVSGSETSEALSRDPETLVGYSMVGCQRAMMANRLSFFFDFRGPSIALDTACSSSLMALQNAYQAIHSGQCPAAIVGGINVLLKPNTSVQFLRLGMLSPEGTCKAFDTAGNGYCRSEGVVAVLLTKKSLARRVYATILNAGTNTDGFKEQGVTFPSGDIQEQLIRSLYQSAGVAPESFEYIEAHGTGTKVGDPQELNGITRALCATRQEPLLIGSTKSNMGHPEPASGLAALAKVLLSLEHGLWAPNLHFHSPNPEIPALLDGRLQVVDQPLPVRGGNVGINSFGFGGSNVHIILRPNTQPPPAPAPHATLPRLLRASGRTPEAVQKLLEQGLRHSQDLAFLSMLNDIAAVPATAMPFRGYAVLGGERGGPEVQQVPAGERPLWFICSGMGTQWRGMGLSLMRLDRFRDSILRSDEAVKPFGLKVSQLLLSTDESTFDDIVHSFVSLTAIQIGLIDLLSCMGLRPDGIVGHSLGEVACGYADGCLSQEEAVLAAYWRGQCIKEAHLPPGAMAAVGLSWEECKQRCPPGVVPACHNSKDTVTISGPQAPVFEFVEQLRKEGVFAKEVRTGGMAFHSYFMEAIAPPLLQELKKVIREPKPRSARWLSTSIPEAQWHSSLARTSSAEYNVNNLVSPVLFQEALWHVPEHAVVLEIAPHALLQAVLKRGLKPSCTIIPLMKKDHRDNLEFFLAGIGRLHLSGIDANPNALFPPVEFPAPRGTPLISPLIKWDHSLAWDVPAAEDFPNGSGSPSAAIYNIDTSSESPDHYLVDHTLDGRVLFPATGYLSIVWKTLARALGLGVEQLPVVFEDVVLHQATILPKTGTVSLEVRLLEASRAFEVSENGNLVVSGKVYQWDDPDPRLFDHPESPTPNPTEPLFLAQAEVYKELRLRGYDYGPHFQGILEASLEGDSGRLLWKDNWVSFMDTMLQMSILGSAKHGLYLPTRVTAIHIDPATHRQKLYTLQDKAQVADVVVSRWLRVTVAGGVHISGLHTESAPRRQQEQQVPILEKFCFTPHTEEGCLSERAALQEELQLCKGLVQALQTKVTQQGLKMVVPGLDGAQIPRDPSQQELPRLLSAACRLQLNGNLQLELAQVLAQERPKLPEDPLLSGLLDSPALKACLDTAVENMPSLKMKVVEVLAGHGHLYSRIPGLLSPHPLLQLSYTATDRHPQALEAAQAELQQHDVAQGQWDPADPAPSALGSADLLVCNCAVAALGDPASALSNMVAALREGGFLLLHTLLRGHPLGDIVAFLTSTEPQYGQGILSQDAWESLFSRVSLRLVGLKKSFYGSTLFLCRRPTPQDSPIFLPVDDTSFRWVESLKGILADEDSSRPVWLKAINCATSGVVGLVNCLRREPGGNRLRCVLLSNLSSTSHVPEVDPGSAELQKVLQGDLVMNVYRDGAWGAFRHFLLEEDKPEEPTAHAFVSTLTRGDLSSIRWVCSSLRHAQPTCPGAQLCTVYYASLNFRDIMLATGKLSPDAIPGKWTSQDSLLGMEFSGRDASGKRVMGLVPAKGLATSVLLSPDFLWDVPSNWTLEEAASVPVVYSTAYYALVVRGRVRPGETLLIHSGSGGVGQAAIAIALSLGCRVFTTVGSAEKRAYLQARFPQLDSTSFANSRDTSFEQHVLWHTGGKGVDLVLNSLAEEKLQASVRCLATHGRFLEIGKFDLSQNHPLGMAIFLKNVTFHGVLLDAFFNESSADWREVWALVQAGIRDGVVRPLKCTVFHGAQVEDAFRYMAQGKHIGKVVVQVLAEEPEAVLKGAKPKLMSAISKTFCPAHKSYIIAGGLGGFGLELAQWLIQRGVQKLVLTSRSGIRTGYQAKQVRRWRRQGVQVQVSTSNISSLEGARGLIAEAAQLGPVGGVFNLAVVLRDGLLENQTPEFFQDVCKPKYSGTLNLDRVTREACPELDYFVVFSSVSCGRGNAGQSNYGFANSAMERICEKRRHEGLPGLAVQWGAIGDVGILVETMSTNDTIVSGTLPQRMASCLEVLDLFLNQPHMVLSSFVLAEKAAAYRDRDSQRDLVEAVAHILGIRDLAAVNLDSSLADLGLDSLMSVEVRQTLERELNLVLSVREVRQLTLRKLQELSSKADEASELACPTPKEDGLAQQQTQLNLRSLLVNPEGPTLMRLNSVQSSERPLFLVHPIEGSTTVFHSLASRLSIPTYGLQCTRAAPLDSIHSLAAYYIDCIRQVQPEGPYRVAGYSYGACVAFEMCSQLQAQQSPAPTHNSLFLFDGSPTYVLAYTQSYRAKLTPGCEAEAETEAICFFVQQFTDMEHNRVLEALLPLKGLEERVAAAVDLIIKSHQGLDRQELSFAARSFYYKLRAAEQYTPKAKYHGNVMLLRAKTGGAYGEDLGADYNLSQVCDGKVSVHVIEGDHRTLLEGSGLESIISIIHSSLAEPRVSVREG

Take `C[C@H]1CN(C(=O)c2ccc(-c3nc4ccc(F)cc4o3)cc2)CCN1C(=O)C1(O)CC1` [Compound 1]: in data set [1], the IC50 (as a rule, the concentration that gives 50% inhibition) is 100 to 1000 nM. Moreover, in data set [2], the “Brain (μM) at 2 h” value was 1.3 µM, the “Plasma (μM) at 2 h” value is 7.3 µM, the “[Brain]/[Plasma] at 2 h” value came out at 0.18 and the “Brain (μM) at 8 h” value worked out at 0.40 µM. For the same molecule, in data set [2], the “Plasma (μM) at 8 h” value was determined as 2.1 µM and the “[Brain]/[Plasma] at 8 h” value is recorded as 0.20.
Consider `C[C@@H]1CN(C(=O)c2ccc(-c3nc4ccc(F)cc4o3)cc2)C[C@H](C)N1C(=O)C1(O)CC1` [Compound 2], for which, in data set [1], the IC50 is under 100 nM. Besides, in data set [2], the “Brain (μM) at 2 h” value is 0.3 µM, the “Plasma (μM) at 2 h” value stood at 1.4 µM, the “[Brain]/[Plasma] at 2 h” value is reported as 0.20 and the “Brain (μM) at 8 h” value turned out to be 0.01 µM. In data set [2], the “Plasma (μM) at 8 h” value worked out at 0.06 µM and the “[Brain]/[Plasma] at 8 h” value is 0.21.
As to `O=C(c1ccc(-c2nc3ccc(F)cc3o2)cc1)N1CCN(C(=O)C2(O)CC2)CC1` [Compound 3], in data set [1], the IC50 was in the range of 100 to 1000 nM. In data set [2], the “Brain (μM) at 2 h” value was 1.8 µM, the “Plasma (μM) at 2 h” value came out at 7.8 µM, the “[Brain]/[Plasma] at 2 h” value is given as 0.23 and the “Brain (μM) at 8 h” value was found to be 0.89 µM. Moreover, in data set [2], the “Plasma (μM) at 8 h” value stood at 3.3 µM and the “[Brain]/[Plasma] at 8 h” value stood at 0.27.
As to `C[C@H]1CN(C(=O)c2ccc(-c3nc4ccc(F)cc4o3)cc2F)CCN1C(=O)C1(O)CC1` [Compound 4], in data set [1], the IC50 was under 100 nM. For the same molecule, in data set [2], the “Brain (μM) at 2 h” value stood at 1.6 µM, the “Plasma (μM) at 2 h” value was 10.6 µM, the “[Brain]/[Plasma] at 2 h” value is on record as 0.15 and the “Brain (μM) at 8 h” value is 0.17 µM. In data set [2], the “Plasma (μM) at 8 h” value was determined as 1.1 µM and the “[Brain]/[Plasma] at 8 h” value is 0.16.
`O=C(c1ccc(-c2nc3ccc(F)cc3o2)cc1F)N1CCN(C(=O)C2(O)CC2)CC1` [Compound 5]: the IC50 in data set [1] fell in the range of 100 to 1000 nM. For the same molecule, in data set [2], the “Brain (μM) at 2 h” value amounted to 1.4 µM, the “Plasma (μM) at 2 h” value came to 8.4 µM, the “[Brain]/[Plasma] at 2 h” value came out at 0.17 and the “Brain (μM) at 8 h” value stood at 0.62 µM. In addition, in data set [2], the “Plasma (μM) at 8 h” value amounted to 3.3 µM and the “[Brain]/[Plasma] at 8 h” value turned out to be 0.19.
Regarding `O=C(c1ccc(-c2nc3ccc(F)cc3o2)cc1F)N1CCN(C(=O)[C@H]2CCCO2)CC1` [Compound 6], the IC50 in data set [1] was in the range of 100 to 1000 nM. In data set [2], the “Brain (μM) at 2, 8 h (single value)” value was 0.042 µM; the “Plasma (μM) at 2, 8 h (single value)” value is 0.396 µM; the Kp is 0.105.
On the same counts, the results for `C[C@H]1CN(C(=O)c2ccc(-c3nc4ccc(F)cc4o3)cc2F)CCN1C(=O)C1(N)CC1` [Compound 7] are 100 to 1000 nM, 0.013 µM, 0.238 µM and 0.05.
On the same counts, the results for `C[C@@H]1CN(C(=O)c2ccc(-c3nc4ccc(F)cc4o3)cc2)C[C@H](C)N1C(=O)C1(N)CC1` [Compound 8] are 100 to 1000 nM, 0.038 µM, 0.309 µM and 0.12.
Molecule `Cn1cnc2cc(-c3ccc(C(=O)N4CCN(C(=O)C5(O)CC5)CC4)c(F)c3)ccc21` [Compound 9] registered an IC50 in data set [1] of under 100 nM. In data set [2], the “Brain (μM) at 2 h” value stood at 0.03 µM, the “Plasma (μM) at 2 h” value turned out to be 5.2 µM, the “[Brain]/[Plasma] at 2 h” value is recorded as 0.006 and the “Brain (μM) at 8 h” value was 0.007 µM. In data set [2], the “Plasma (μM) at 8 h” value is 0.6 µM and the “[Brain]/[Plasma] at 8 h” value turned out to be 0.012.
On to `C[C@H]1CN(C(=O)c2ccc(-c3ccc4c(c3)ncn4C)cc2F)CCN1C(=O)C1(O)CC1` [Compound 10], for which the IC50 in data set [1] was under 100 nM. In data set [2], the “Brain (μM) at 2 h” value came out at 0.04 µM, the “Plasma (μM) at 2 h” value is 4.4 µM, the “[Brain]/[Plasma] at 2 h” value stood at 0.007 and the “Brain (μM) at 8 h” value was 0.004 µM. Besides, in data set [2], the “Plasma (μM) at 8 h” value stood at 1.0 µM and the “[Brain]/[Plasma] at 8 h” value was 0.004.
On to `C[C@H]1CN(C(=O)c2ccc(-c3ccc4c(c3)ncn4C)cc2)CCN1C(=O)C1(O)CC1` [Compound 11], for which the IC50 in data set [1] was under 100 nM. In addition, in data set [2], the “Brain (μM) at 2 h” value came to 0.02 µM, the “Plasma (μM) at 2 h” value was found to be 4.4 µM, the “[Brain]/[Plasma] at 2 h” value worked out at 0.005 and the “Brain (μM) at 8 h” value came out at 0.0 µM. Also, in data set [2], the “Plasma (μM) at 8 h” value was 0.6 µM and the “[Brain]/[Plasma] at 8 h” value is recorded as 0.000.
In data set [1], `Cn1cnc2cc(-c3ccc(C(=O)N4CCN(C(=O)C5(O)CC5)CC4)cc3)ccc21` [Compound 12] yielded an IC50 of 100 to 1000 nM. In data set [2], the “Brain (μM) at 2 h” value was found to be 0.02 µM, the “Plasma (μM) at 2 h” value turned out to be 1.5 µM, the “[Brain]/[Plasma] at 2 h” value is given as 0.014 and the “Brain (μM) at 8 h” value worked out at 0.0 µM. In addition, in data set [2], the “Plasma (μM) at 8 h” value is 0.2 µM and the “[Brain]/[Plasma] at 8 h” value turned out to be 0.000.
`Cn1cc(-c2ccc(-c3ccc(C(=O)N4CCN(C(=O)C5(O)CC5)CC4)cc3)cc2)cn1` [Compound 13]: in data set [1], the IC50 was under 100 nM. Also, in data set [2], the “Brain (μM) at 2 h” value was 0.28 µM, the “Plasma (μM) at 2 h” value was found to be 5.8 µM, the “[Brain]/[Plasma] at 2 h” value turned out to be 0.05 and the “Brain (μM) at 8 h” value worked out at 0.12 µM. In data set [2], the “Plasma (μM) at 8 h” value turned out to be 3.1 µM and the “[Brain]/[Plasma] at 8 h” value stood at 0.04.
